From US10077261B2, “Imidazolin-5-one derivative useful as FASN inhibitors for the treatment of cancer” (Janssen Pharmaceutica NV, priority 2012, dated 2018)

Columns and labels:
[1] = system: LNCaP-Vancouver prostate cells; assay: In vitro LNCaP Vancouver prostate cell proliferation assay in lipid reduced medium; type: cell-based; details: read-out: pIC50 LNCaP_Vancouver prostate cell (converted)
A2780 ovarian cells [2] = assay: A2780 ovarian cell proliferation assay in lipid reduced medium, without palmitate (MTT); type: cell-based; details: Homo sapiens, A2780, 96 h; read-out: pIC50 A2780 Ovarian Cell, Without Palmitate (converted)
[3] = target: Fatty Acid Synthase Keto-reductase Domain (FASN KR) (Homo sapiens, UniProt P49327); assay: Fatty Acid Synthase keto-reductase domain (FASN KR) inhibition, NADPH oxidation at 340 nm
Sequence of Fatty Acid Synthase Keto-reductase Domain (FASN KR) (P49327 whole entry, the tested form may be a part): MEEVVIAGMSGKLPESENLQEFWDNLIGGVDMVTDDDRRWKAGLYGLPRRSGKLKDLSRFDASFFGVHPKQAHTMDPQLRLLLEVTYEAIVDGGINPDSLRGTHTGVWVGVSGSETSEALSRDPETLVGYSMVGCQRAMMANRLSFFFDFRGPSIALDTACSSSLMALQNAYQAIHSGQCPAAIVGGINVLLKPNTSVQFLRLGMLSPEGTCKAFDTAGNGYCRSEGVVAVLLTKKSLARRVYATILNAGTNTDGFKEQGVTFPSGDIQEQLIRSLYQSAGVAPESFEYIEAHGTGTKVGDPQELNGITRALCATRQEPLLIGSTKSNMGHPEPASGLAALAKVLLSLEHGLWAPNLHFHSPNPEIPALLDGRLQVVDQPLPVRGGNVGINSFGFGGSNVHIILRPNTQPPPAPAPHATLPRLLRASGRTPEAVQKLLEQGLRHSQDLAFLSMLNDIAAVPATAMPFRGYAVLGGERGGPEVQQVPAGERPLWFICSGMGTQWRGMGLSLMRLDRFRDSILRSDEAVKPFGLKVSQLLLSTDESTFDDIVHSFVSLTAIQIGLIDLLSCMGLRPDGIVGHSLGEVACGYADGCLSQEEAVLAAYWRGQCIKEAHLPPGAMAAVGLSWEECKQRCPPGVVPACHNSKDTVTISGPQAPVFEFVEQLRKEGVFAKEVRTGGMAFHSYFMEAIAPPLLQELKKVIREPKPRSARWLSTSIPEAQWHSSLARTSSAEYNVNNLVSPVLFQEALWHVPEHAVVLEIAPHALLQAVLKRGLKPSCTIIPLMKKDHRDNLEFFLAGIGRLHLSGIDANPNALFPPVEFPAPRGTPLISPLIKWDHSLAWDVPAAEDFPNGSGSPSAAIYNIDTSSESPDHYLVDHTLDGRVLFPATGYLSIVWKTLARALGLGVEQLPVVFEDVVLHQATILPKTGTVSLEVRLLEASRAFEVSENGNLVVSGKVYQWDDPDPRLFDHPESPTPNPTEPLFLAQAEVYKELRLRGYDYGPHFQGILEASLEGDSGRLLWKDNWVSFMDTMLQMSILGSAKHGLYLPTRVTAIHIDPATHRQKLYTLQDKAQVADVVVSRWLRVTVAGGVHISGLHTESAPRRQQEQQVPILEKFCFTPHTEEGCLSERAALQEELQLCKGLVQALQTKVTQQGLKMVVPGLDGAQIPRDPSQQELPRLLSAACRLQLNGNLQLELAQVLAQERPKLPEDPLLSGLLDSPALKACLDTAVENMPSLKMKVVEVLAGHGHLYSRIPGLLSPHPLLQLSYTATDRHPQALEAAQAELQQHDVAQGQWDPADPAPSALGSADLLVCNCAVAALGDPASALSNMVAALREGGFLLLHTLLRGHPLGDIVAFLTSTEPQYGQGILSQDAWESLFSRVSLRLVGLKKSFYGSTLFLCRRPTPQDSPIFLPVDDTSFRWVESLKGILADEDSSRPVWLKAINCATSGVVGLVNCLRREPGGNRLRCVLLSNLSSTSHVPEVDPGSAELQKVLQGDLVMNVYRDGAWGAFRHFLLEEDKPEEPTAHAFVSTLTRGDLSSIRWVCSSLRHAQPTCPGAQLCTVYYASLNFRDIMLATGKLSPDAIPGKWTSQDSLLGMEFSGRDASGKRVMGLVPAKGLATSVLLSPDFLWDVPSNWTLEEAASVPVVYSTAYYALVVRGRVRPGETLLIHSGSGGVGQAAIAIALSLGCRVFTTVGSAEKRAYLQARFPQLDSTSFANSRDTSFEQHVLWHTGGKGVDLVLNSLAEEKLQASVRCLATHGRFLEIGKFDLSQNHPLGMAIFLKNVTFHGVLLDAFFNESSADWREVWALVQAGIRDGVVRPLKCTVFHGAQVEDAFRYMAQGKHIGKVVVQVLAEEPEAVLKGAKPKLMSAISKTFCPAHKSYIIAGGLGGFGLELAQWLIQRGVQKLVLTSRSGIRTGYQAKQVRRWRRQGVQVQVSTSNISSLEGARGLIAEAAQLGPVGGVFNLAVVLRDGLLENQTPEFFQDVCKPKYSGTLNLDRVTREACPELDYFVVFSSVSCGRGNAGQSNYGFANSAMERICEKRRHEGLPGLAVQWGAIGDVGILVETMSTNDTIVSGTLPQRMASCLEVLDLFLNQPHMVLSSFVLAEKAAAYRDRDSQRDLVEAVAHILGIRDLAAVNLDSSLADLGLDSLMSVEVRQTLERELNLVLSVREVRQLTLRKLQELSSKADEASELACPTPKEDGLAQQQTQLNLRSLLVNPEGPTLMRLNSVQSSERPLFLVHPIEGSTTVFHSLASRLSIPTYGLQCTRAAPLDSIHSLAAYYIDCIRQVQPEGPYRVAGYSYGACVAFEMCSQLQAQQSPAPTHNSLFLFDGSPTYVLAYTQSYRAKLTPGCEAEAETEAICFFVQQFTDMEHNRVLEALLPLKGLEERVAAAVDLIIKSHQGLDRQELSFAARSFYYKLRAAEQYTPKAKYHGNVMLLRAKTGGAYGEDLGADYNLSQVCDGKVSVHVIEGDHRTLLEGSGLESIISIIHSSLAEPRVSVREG
Experimental: After 20 minutes incubation at room temperature the plate was measured again (T2).
The decrease in absorbance was calculated as (Absorbance before incubation T1)−(Absorbance following incubation T2).
A plot of Controlmin versus test compound concentration was fitted to a 4-parameter logistic curve using a non-linear least squares regression method.

[4] = system: PC-3M-Luc-C6 prostate cells; assay: In vitro PC-3M-Luc-C6 prostate cell proliferation assay in lipid reduced medium; type: cell-based; details: 96 h, read-out: pIC50 PC-3M-Luc-C6 prostate cell (converted)
A2780 ovarian cells [5] = assay: A2780 ovarian cell proliferation assay in lipid reduced medium, with palmitate (MTT); type: cell-based; details: Homo sapiens, A2780, 96 h; read-out: pIC50 A2780 Ovarian Cell, With Palmitate (converted)
In short: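 Seeded cells were switched next day to lipid-reduced serum, exposed to compound and 25 μM palmitate complexed with fatty-acid-free BSA, and incubated 96 h. Proliferation was then determined by MTT absorbance at 544 nm, with a best-fit curve of signal against concentration.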

[6] = target: T1, hFASN enzyme (full length) (Homo sapiens, UniProt P49327); assay: Fatty Acid Synthase (FASN) inhibition scintillation proximity assay; type: biochemical; details: for inhibition at 10 µM: read-out: Human FASN % inhibition @ 10 μM, 10 μM test compound; for IC50: read-out: Human FASN pIC50 (converted)
T1 construct: 10 μL hFASN enzyme (full length, 300 ng, purified in house); made in house
T1 sequence (P49327 whole entry): as the sequence (P49327 whole entry, the tested form may be a part) above
In short: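 Compounds at 0.01–30 μM were mixed with 300 ng purified full-length enzyme in 100 mM KH2PO4 pH 7.5, 1 mM DTT. Substrates ³H-acetyl-CoA and malonyl-CoA were then converted, and bead addition stopped the reaction. Signal was normalised to low and high plate controls and fitted by 4-parameter nonlinear regression.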

| Compound | IC50 [1] | IC50 (A2780 ovarian cells [2]) | IC50 [3] | IC50 [4] | IC50 (A2780 ovarian cells [5]) | inhibition at 10 µM [6] | IC50 [6] |
| --- | --- | --- | --- | --- | --- | --- | --- |
| Cn1ccc2ccc(-c3ccc(C4=NC5(CC5)C(=O)N4CC4CN(C(=O)C5CC5)C4)cc3)cc21 [compound 541, 6-{[1-(Cyclopropylcarbonyl)azetidin-3-yl]methyl}-5-[4-(1-methyl-1H-indol-6-yl)phenyl]-4,6-diazaspiro[2.4]hept-4-en-7-one] | ~1.02 µM | 0.282 µM | 0.339 µM | 0.309 µM | > 10 µM | 100% | 0.11 µM |
| Cn1ccc(-c2ccc(-c3ccc(C4=NC5(CC5)C(=O)N4CC4CN(C(=O)C5CC5)C4)cc3)cc2)n1 [compound 542, 6-{[1-(Cyclopropylcarbonyl)azetidin-3-yl]methyl}-5-[4′-(1-methyl-1H-pyrazol-3-yl)biphenyl-4-yl]-4,6-diazaspiro[2.4]hept-4-en-7-one] | 3.02 µM | 0.832 µM | 1.62 µM | 4.47 µM | > 10 µM | 89% | 0.692 µM |
| CC(C)Cn1cc(-c2ccc(-c3ccc(C4=NC5(CC5)C(=O)N4CC4CN(C(=O)C5CC5)C4)cc3)cc2)cn1 [compound 544, 6-{[1-(Cyclopropylcarbonyl)azetidin-3-yl]methyl}-5-{4′-[1-(2-methylpropyl)-1H-pyrazol-4-yl]biphenyl-4-yl}-4,6-diazaspiro[2.4]hept-4-en-7-one] | 0.776 µM | 0.0525 µM | 0.724 µM | 0.141 µM | 1.62 µM | 98% | 0.204 µM |
| Cc1cc(-c2ccc3c(cnn3C)c2)ccc1C1=NC2(CC2)C(=O)N1CC1CN(C(=O)C2CCO2)C1 (centres unmarked) [compound 545, 5-[2-Methyl-4-(1-methyl-1H-indazol-5-yl)phenyl]-6-{[1-(oxetan-2-ylcarbonyl)azetidin-3-yl]methyl}-4,6-diazaspiro[2.4]hept-4-en-7-one] | 0.269 µM | 0.0912 µM | 0.257 µM | 0.126 µM | > 10 µM | 101% | 0.11 µM |
| Cc1ccnc2cc(-c3ccc(C4=NC5(CC5)C(=O)N4CC4CN(C(=O)C5CC5)C4)cc3)ccc12 [compound 554, 6-{[1-(Cyclopropylcarbonyl)azetidin-3-yl]methyl}-5-[4-(4-methylquinolin-7-yl)phenyl]-4,6-diazaspiro[2.4]hept-4-en-7-one] | 0.646 µM | ~0.145 µM | 0.269 µM | ~0.174 µM | 7.76 µM | 97% | 0.129 µM |
| Cc1nc2ccc(-c3ccc(C4=NC5(CC5)C(=O)N4CC4CN(C(=O)C5CC5)C4)c(F)c3)cc2s1 [compound 558, 6-{[1-(Cyclopropylcarbonyl)azetidin-3-yl]methyl}-5-[2-fluoro-4-(2-methyl-1,3-benzothiazol-6-yl)phenyl]-4,6-diazaspiro[2.4]hept-4-en-7-one] | 2.51 µM | ~0.562 µM | 0.708 µM | 0.724 µM | 6.31 µM | 96% | 0.186 µM |
| Cc1nc2cc(-c3ccc(C4=NC5(CC5)C(=O)N4CC4CN(C(=O)C5CC5)C4)cc3)ccc2s1 [compound 562, 6-{[1-(Cyclopropylcarbonyl)azetidin-3-yl]methyl}-5-[4-(2-methyl-1,3-benzothiazol-5-yl)phenyl]-4,6-diazaspiro[2.4]hept-4-en-7-one] | 3.09 µM | 0.955 µM | 1.38 µM | 1.62 µM | > 10 µM | 97% | 0.245 µM |
| Cn1nccc1-c1ccc(-c2ccc(C3=NC4(CC4)C(=O)N3CC3CN(C(=O)C4(C)CC4)C3)c(F)c2)cc1 [compound 566, 5-[3-Fluoro-4′-(1-methyl-1H-pyrazol-5-yl)biphenyl-4-yl]-6-({1-[(1-methylcyclopropyl)carbonyl]azetidin-3-yl}methyl)-4,6-diazaspiro[2.4]hept-4-en-7-one] | 1.55 µM | 0.295 µM | 0.776 µM | 0.575 µM | > 10 µM | 93% | 0.38 µM |
| Cc1ccc2ccc(-c3ccc(C4=NC5(CC5)C(=O)N4CC4CN(C(=O)C5(C)CC5)C4)c(C)c3)cc2n1 [compound 576, 6-({1-[(1-Methylcyclopropyl)carbonyl]azetidin-3-yl}methyl)-5-[2-methyl-4-(2-methylquinolin-7-yl)phenyl]-4,6-diazaspiro[2.4]hept-4-en-7-one] | 2.14 µM | 0.288 µM | 0.676 µM | 0.676 µM | > 10 µM | 99% | 0.38 µM |
| Cc1cc(-c2cccc(NS(=O)(=O)C3CC3)c2)ccc1C1=NC2(CC2)C(=O)N1CC1CN(C(=O)C2CC2)C1 [compound 578, N-[4′-(6-{[1-(Cyclopropylcarbonyl)azetidin-3-yl]methyl}-7-oxo-4,6-diazaspiro[2.4]hept-4-en-5-yl)-3′-methylbiphenyl-3-yl]cyclopropanesulfonamide] | 5.01 µM | 0.331 µM | 1.55 µM | 0.871 µM | > 10 µM | 92% | 0.646 µM |
| Cc1cc(-c2ccc3ccc(C(N)=O)nc3c2)ccc1C1=NC2(CC2)C(=O)N1CC1CN(C(=O)C2(C)CC2)C1 [compound 579, 7-{3-Methyl-4-[6-({1-[(1-methylcyclopropyl)carbonyl]azetidin-3-yl}methyl)-7-oxo-4,6-diazaspiro[2.4]hept-4-en-5-yl]phenyl}quinoline-2-carboxamide] | 4.57 µM | 1.1 µM | 4.57 µM | 2 µM | > 10 µM | 83% | 1.1 µM |
| Cc1cc(-c2ccc3c(c2)cc(C)n3C)ccc1C1=NC2(CC2)C(=O)N1CC1CN(C(=O)C2CC2)C1 [compound 582, 6-{[1-(Cyclopropylcarbonyl)azetidin-3-yl]methyl}-5-[4-(1,2-dimethyl-1H-indol-5-yl)-2-methylphenyl]-4,6-diazaspiro[2.4]hept-4-en-7-one] | 3.24 µM | ~0.631 µM | 1.2 µM | 0.794 µM | > 10 µM | 103% | 0.324 µM |
| Cn1ncc2cc(-c3ccc(C4=NC5(CC5)C(=O)N4CC4CN(C(=O)C5CC5)C4)c(Cl)c3)ccc21 [compound 584, 5-[2-Chloro-4-(1-methyl-1H-indazol-5-yl)phenyl]-6-{[1-(cyclopropylcarbonyl)azetidin-3-yl]methyl}-4,6-diazaspiro[2.4]hept-4-en-7-one] | 0.646 µM | 0.0631 µM | 0.17 µM | 0.0832 µM | 6.61 µM | 91% | 0.135 µM |
| Cc1cc(-c2ccc3ccc(Cl)nc3c2)ccc1C1=NC2(CC2)C(=O)N1CC1CN(C(=O)C2(C)CC2)C1 [compound 594, 5-[4-(2-Chloroquinolin-7-yl)-2-methylphenyl]-6-({1-[(1-methylcyclopropyl)carbonyl]azetidin-3-yl}methyl)-4,6-diazaspiro[2.4]hept-4-en-7-one] | 1.91 µM | 0.617 µM | 1.07 µM | ~0.589 µM | > 10 µM | 102% | 0.245 µM |
| Cc1cc(-c2cccc3nn(C)cc23)ccc1C1=NC2(CC2)C(=O)N1CC1CN(C(=O)C2(C)CC2)C1 [compound 598, 6-({1-[(1-Methylcyclopropyl)carbonyl]azetidin-3-yl}methyl)-5-[2-methyl-4-(2-methyl-2H-indazol-4-yl)phenyl]-4,6-diazaspiro[2.4]hept-4-en-7-one] | 2.34 µM | 0.2 µM | 0.309 µM | ~0.355 µM | > 10 µM | 103% | 0.209 µM |
| Cc1cc(-c2nn(C)c3ccccc23)ccc1C1=NC2(CC2)C(=O)N1CC1CN(C(=O)C2(C)CC2)C1 [compound 600, 6-({1-[(1-Methylcyclopropyl)carbonyl]azetidin-3-yl}methyl)-5-[2-methyl-4-(1-methyl-1H-indazol-3-yl)phenyl]-4,6-diazaspiro[2.4]hept-4-en-7-one] | 2.24 µM | ~0.603 µM | 1.2 µM | 0.501 µM | > 10 µM | 98% | 0.417 µM |
| Cc1cc(-c2ccc(-c3ccn(CC4CC4)n3)cc2)ccc1C1=NC2(CC2)C(=O)N1CC1CN(C(=O)C2(C)CC2)C1 [compound 601, 5-{4′-[1-(Cyclopropylmethyl)-1H-pyrazol-3-yl]-3-methylbiphenyl-4-yl}-6-({1-[(1-methylcyclopropyl)carbonyl]azetidin-3-yl}methyl)-4,6-diazaspiro[2.4]hept-4-en-7-one] | 1.02 µM | 0.219 µM | 0.501 µM | 0.316 µM | 3.89 µM | 100% | 0.186 µM |
